# According to patent publication US7375083B2, “Pharmaceutical compositions for prevention of overdose or abuse” (Shire LLC, priority 2003, dated 2008):
# Key:
# [1] = Oral bioavailability in rats at escalating doses, LC/MS/MS; settings: rat
# [2] = Intranasal bioavailability in rats, plasma d-amphetamine by ELISA; settings: rat, 3 mg/kg
# [3] = molecular target: T1, human recombinant norepinephrine transport binding sites (Homo sapiens, UniProt P23975); experiment: Radioligand binding, norepinephrine transporter; settings: 10^−9 to 10^−5 M
# T1 construct: purchased Novascreen, Hanover, Md
# [4] = molecular target: T2, human recombinant dopamine transport binding sites (Homo sapiens, UniProt Q01959); experiment: Radioligand binding, dopamine transporter; settings: 10^−9 to 10^−5 M
# T2 construct: purchased Novascreen, Hanover, Md
# [5] = Intranasal bioavailability in rats, LC/MS/MS; settings: male, Sprague-Dawley, rat, plasma, inhaled or intranasal, 3 mg/kg
# [6] = Serum and brain tissue levels after oral administration, LC/MS/MS; settings: rat, 5 mg/kg d-amphetamine base
# [7] = male, Sprague-Dawley, in vivo, po, 3 mg/kg
# [8] = male, Sprague-Dawley, in vivo, po, 6 mg/kg
# [9] = male, Sprague-Dawley, in vivo, po, 12 mg/kg
# [10] = male, Sprague-Dawley, in vivo, po, 60 mg/kg
# T1 sequence (P23975 whole entry): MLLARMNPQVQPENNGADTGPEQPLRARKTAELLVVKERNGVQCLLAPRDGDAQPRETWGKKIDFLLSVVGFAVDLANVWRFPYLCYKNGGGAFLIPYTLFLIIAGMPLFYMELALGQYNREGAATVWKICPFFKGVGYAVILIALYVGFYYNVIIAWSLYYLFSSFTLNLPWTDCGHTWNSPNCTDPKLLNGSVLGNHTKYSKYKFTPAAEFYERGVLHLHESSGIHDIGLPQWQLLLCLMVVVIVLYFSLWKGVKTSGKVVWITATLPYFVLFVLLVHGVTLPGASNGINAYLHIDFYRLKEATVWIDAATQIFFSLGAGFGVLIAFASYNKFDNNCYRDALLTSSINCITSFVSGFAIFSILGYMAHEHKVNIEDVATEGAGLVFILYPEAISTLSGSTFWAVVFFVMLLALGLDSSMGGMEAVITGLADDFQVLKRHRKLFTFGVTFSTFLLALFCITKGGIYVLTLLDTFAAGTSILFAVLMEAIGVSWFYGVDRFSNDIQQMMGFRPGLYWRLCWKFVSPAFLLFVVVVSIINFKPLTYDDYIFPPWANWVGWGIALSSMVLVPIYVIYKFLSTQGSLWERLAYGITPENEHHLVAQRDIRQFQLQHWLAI
# T2 sequence (Q01959 whole entry): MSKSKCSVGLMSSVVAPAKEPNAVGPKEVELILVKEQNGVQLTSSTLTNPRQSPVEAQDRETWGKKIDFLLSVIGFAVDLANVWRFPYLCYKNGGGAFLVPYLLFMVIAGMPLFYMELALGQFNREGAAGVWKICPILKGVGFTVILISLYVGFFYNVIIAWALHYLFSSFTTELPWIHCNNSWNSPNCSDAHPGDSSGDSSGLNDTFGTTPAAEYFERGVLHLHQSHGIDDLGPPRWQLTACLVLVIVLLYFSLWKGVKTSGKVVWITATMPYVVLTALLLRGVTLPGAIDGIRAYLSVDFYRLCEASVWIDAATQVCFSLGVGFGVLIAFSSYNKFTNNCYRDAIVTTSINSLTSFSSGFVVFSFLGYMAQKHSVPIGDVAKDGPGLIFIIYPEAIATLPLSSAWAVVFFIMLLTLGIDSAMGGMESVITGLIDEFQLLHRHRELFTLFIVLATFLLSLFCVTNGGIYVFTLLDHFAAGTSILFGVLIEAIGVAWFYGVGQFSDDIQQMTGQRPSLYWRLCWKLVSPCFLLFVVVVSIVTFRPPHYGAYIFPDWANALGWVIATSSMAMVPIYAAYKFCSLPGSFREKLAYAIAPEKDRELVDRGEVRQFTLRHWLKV
smiles,measurement,setting,value
"CC(Cc1ccccc1)NC(=O)C(N)CCCCN [L-lysine-d-amphetamine, 2,6-diaminohexanoic acid-(1-methyl-2-phenylethyl)-amide]",Tmax,"[1]; male, Sprague-Dawley, in vivo, po",15 to 180 min
same,AUC(0-t),[1]; [7],330 ng·h/mL
same,Cmax,[1]; [7],135 ng/mL
same,Tmax,[1]; [7],90 min
same,AUC(0-t),[1]; [8],1160 ng·h/mL
same,Cmax,[1]; [8],677 ng/mL
same,Tmax,[1]; [8],15 min
same,AUC(0-inf),[1]; [9],4510 ng·h/mL
same,AUC(0-t),[1]; [9],4240 ng·h/mL
same,Cmax,[1]; [9],856 ng/mL
same,Tmax,[1]; [9],60 min
same,AUC(0-t),[1]; [10],8230 ng·h/mL
same,Cmax,[1]; [10],1870 ng/mL
same,Tmax,[1]; [10],180 min
same,Tmax,"[1]; male, Sprague-Dawley, in vivo, po, […]",15 min
same,Cmax of d-amphetamine compared to d-amphetamine sulfate,"[1]; oral, 1.5 to 6 mg/kg",reduced by approximately half
same,Release of d-amphetamine into circulation,[2],did not release any significant amount of d-amphetamine
same,Specific binding,[3],did not bind
same,Specific binding,[4],did not bind
same,AUC(0-inf),[5],9140 ng·h/mL
same,AUC(0-t),[5],2580 ng·h/mL
same,Cmax,[5],3350 ng/mL
same,Tmax,[5],15 min
same,Intact conjugate in serum,[6],present in appreciable amounts in serum
